From ChEMBL document CHEMBL2062421, “The antioxidant effect of imine resveratrol analogues” (Bioorg Med Chem Lett, 2012)
pIC50: −log10 of the molar value. Activity calls are given as the source filed them. No cut-off for these calls is given here.

What was measured:
[1] = Antioxidant activity assessed as DPPH scavenging activity after 30 mins by microplate reader method; format: functional
[2] = Antioxidant activity assessed as singlet 1O2 oxygen quenching activity after 2 mins by EPR spectrometry; format: functional
[3] = Antioxidant activity assessed as inhibition of TEMP-singlet 1O2 oxygen adduct formation measuring after 2 mins by EPR spectrometry; format: functional
[4] = Antioxidant activity assessed as inhibition of singlet 1O2 oxygen formation at 1.3 uM after 2 mins by EPR spectrometry; format: functional
[5] = Ratio of resveratrol IC50 to compound IC50 for singlet 1O2 oxygen quenching activity
[6] = Antioxidant activity assessed as complete inhibition of singlet 1O2 oxygen formation at 37 uM after 2 mins by EPR spectrometry

Compound: Cc1ccc(/N=C/c2ccc(O)cc2)cc1
- pIC50 [1]: < 3.00

Compound: COc1ccc(/C=N/c2ccccc2O)cc1
- pIC50 [1]: 4.55
- pIC50 [2]: 5.89

Compound: Oc1ccccc1/C=N/c1ccccc1O
- pIC50 [1]: 4.56
- pIC50 [2]: 5.53

Compound: Oc1ccc(/N=C/c2ccccc2)cc1 [4-(BENZYLIDENEAMINO)PHENOL]
- pIC50 [1]: 3.85

Compound: Oc1ccc(/N=C/c2ccccc2O)cc1
- pIC50 [1]: 3.25

Compound: COc1cccc(/C=N/c2ccc(C)cc2)c1
- pIC50 [1]: < 3.00

Compound: COc1cccc(/C=N/c2ccccc2C)c1
- pIC50 [1]: < 3.00

Compound: Oc1ccc(/N=C/c2cc(O)cc(O)c2)cc1
- pIC50 [1]: 3.79

Compound: COc1cc(/C=C/C(=O)CC(=O)/C=C/c2ccc(O)c(OC)c2)ccc1O [CURCUMIN]
- pIC50 [2]: 5.56

Compound: Oc1ccc(/C=C/c2cc(O)cc(O)c2)cc1 [RESVERATROL]
- pIC50 [1]: 4.15
- pIC50 [2]: 4.77

Compound: COc1cc(/C=N/c2ccc(O)cc2)cc(OC)c1
- pIC50 [1]: 3.38

Compound: Oc1ccccc1/N=C/c1ccccc1
- pIC50 [1]: 4.62
- pIC50 [2]: 5.46

Compound: Cc1ccc(/N=C/c2cccc(O)c2)cc1
- pIC50 [1]: < 3.00

Compound: Cc1cccc(/N=C/c2ccc(O)cc2)c1
- pIC50 [1]: < 3.00

Compound: Oc1ccc(/C=N/c2ccccc2O)cc1
- pIC50 [1]: 4.61
- pIC50 [2]: 6.00
- inhibition [3]: Dose-dependent effect
- inhibition [4]: Active
- Ratio IC50 [5]: > 15
- inhibition [6]: Active

Compound: COc1cccc(/C=N/c2ccccc2O)c1
- pIC50 [1]: 4.60
- pIC50 [2]: 5.85

Compound: COc1ccc(/C=N/c2ccc(OC)cc2)cc1
- pIC50 [1]: < 3.00

Compound: Oc1cccc(/C=N/c2ccccc2O)c1
- pIC50 [1]: 4.64
- pIC50 [2]: 5.66

Compound: Oc1ccc(/C=N/c2cccc(O)c2)cc1
- pIC50 [1]: 3.44

Compound: C(=N\c1ccccc1)/c1ccccc1
- pIC50 [1]: < 3.00

Compound: O=C1O[C@H]([C@@H](O)CO)C(O)=C1O [ASCORBIC ACID]
- pIC50 [1]: 4.71

Compound: COc1ccc(/N=C/c2ccc(O)cc2)cc1
- pIC50 [1]: < 3.00

Compound: Oc1cccc(/C=N/c2ccccc2)c1
- pIC50 [1]: < 3.00

Compound: Oc1ccc(/C=N/c2ccccc2O)cc1O
- pIC50 [1]: 4.92
- pIC50 [2]: 5.65

Compound: Oc1cccc(/N=C/c2ccccc2O)c1
- pIC50 [1]: 3.33

Compound: Oc1ccccc1/C=N/c1ccccc1 [2-((PHENYLIMINO)METHYL)PHENOL]
- pIC50 [1]: < 3.00
